Common to all, as to format: biochemical, Bacillus circulans
Series [1] relates to D-hydantoinase. Description: Substrate selection of D-hydantoinase. As to conditions: substrate 10 mM; for Conversion to the corresponding N-carbamoyl amino acid / Specific activity: 50° C., 10 min; for Relative activity: percentage based on activity for dihydrouracil. The procedure: 10 mM Dihydrouracil, hydantoin, D,L-p-HPH, 5-[2-(methylthio)ethyl]hydantoin, and D,L-homophenylalanyl-hydantoin were used as substrates, respectively. The vector pQE-bcidht in E. coli NovaBlue, crude extracts thereof or the purified D-hydantoinase of the present invention was reacted with each substrate at 50° C. for 10 min. Enzyme activity was then measured.

In series [2] the test system is D-hydantoinase. The series is described as follows: Effects of chelator on D-hydantoinase activity. As to conditions: chelator 10 μM, incubation for 10 hours. The procedure:
The vector pQE-bcidht in E. coli NovaBlue, crude extracts thereof or the purified D-hydantoinase of the present invention was mixed with hydrophilic chelator, EDTA, and hydrophobic chelator, 2,6-dipicolinic acid, at 10 μM concentration, respectively. The mixture was incubated for 0-12 hours, and the enzyme activity was measured.

Series [3] relates to D-hydantoinase. Description: Effects of metal ions on D-hydantoinase activity.
In series [4] the test system is D-hydantoinase. Description: Effects of H2O2, NaCl and NH4Cl on D-hydantoinase activity. To be noted: 10 min; for Effect on enzyme activity: concentration as high as 0.8 M, room temperature. Here is the method:
The vector pQE-bcidht in E. coli NovaBlue, crude extracts thereof or the purified D-hydantoinase of the present invention was incubated at 25° C. for 10 min. Afterwards, the catalase was added to the solution to remove residual H2O2, and then the enzyme activity was measured. In addition, various concentrations of NaCl and NH4Cl were added to the solution containing D-hydantoinase. The solution was incubated at room temperature for 10 min, and the enzyme activity was measured.

Series [5] concerns D-hydantoinase. The series is described as follows: Reaction pH of D-hydantoinase. As to conditions: 10 mM D,L-p-HPH, 50° C., 10 min. The procedure:
The substrate D,L-p-HPH was dissolved in various pH buffers at the final concentration of 10 mM. The vector pQE-bcidht in E. coli NovaBlue, crude extracts thereof or the purified D-hydantoinase of the present invention, were added to each buffer containing substrate, and incubated at 50° C. for 10 min. The specific activity of the enzyme was then measured.

The subject of series [6] is D-hydantoinase. Description: Thermostability of D-hydantoinase. To be noted: after 60 days incubation at 50° C. Here is the method: The vector pQE-bcidht in E. coli NovaBlue, crude extracts thereof or the purified D-hydantoinase of the present invention (47 unit/mg; containing 500 μM Mn^2+), was incubated at 50° C. in a thermostat water bath. The specific activity of the enzyme was measured at various time intervals.

Series [7] relates to D-hydantoinase. Description: Conditions of converting D,L-p-HPH by D-hydantoinase. To be noted: enzyme pre-mixed with Mn2+ and incubated in an ice solution for 4 days. Here is the method:
The reaction pH of D-hydantoinase is between 5 and 10. […] The substrate solubility and enzyme activity can be elevated by grinding D,L-p-HPH to powder form, dissolving the powdered substrate in 50 mM Tris-HCl (pH 8.0), followed by stirring the solution at room temperature for 2 hours. In addition, A suitable amount of DMSO can also enhance the solubility of substrate D,L-p-HPH, and elevate the conversion efficiency from D,L-p-HPH to D-p-HPG by the D-hydantoinase of the present invention.

For series [8], the system named is D-hydantoinase. The series is described as follows: Reaction temperature of D-hydantoinase. As to conditions: 500 μM Mn2+, 10 mM D,L-p-HPH, pH 8.0, 10 min. The procedure: The vector pQE-bcidht in E. coli NovaBlue, crude extracts thereof or the purified D-hydantoinase of the present invention (containing 500 μM Mn^2+), was added to 10 mM substrate of D,L-p-HPH (dissolved in 50 mM Tris-HCl (pH 8.0)). The mixture was incubated at various temperature (30-90° C.) for 10 min. The specific activity of the enzyme was then measured.

The mark [9] stands for this setting: ion 500 μM, 15 min at room temperature, 10 mM D,L-p-HPH in 50 mM Tris-HCl pH 8.0.
[10] abbreviates: ion 500 μM, percentage based on activity without adding ions.

Read-outs that look alike come from different tables or passages of the source.

As to `O=C1NC(=O)C(CCc2ccccc2)N1` (racemic) [D,L-Homophenylalanyl-hydantoin, D,L-homophenylalanyl-hydantoin], in the series with D-hydantoinase [1], the “Conversion to the corresponding N-carbamoyl amino acid” value (“Conversion” for short) was “capable of converting”, the Specific activity amounted to 45.64 unit/mg and the Relative activity is on record as 84%.

Consider `O=C1NC(=O)C(c2ccc(O)cc2)N1` (racemic) [D,L-p-Hydroxyphenylhydantoin, D,L-p-hydroxyphenylhydantoin], for which, in the series on D-hydantoinase [1], the “Conversion” value is “capable of converting”, the Specific activity amounted to 47.43 unit/mg and the Relative activity is on record as 87%.

With `O=C(O)c1cccc(C(=O)O)n1` [2,6-dipicolinic acid], the Retained enzyme activity with D-hydantoinase [2] turned out to be 40%.

Take `CSCCC1NC(=O)NC1=O` (stereo not shown) [5-[2-(Methylthio)ethyl]-hydantoin, 5-[2-(methylthio)ethyl]hydantoin]: in the series on D-hydantoinase [1], the “Conversion” value was “capable of converting”, the Specific activity turned out to be 21.48 unit/mg and the Relative activity is 40%.

In the series with D-hydantoinase [3] (setting [9]), `[Ca+2].[Cl-].[Cl-]` [CaCl2] returned a Specific activity of 2.53 unit/mg. Besides, the Relative activity with D-hydantoinase [3] (setting [10]) was 88%.

As to `[Cl-].[Cl-].[Co+2]` [CoCl2], in the series on D-hydantoinase [3], the “Effect on enzyme activity” value was “enhance the enzyme activity”; the “Increase of enzyme activity, times original activity” value (from here on “Increase of enzyme activity”) is 4.5 times; the Relative activity is given as 252%. The molecule also showed a Specific activity with D-hydantoinase [3] (pH 8) of 7.25 unit/mg.

With `[Cl][Cu][Cl]` [CuCl2], the “Inhibition of D-hydantoinase activity” value in the series on D-hydantoinase [3] (ion 500 μM) was 22%. In addition, in the series with D-hydantoinase [3] (setting [9]), the Specific activity amounted to 2.26 unit/mg. In addition, in the series on D-hydantoinase [3] (setting [10]), the Relative activity amounted to 78%.

For the molecule `O=C1CCNC(=O)N1` [Dihydrouracil], the results for the Specific activity in the series with D-hydantoinase [1] and in the series on D-hydantoinase [1] (listed as dihydrouracil) were 54.29 unit/mg and 54 unit/mg, respectively. The Relative activity with D-hydantoinase [1] came to 100%.

Regarding `O=C(O)CN(CCN(CC(=O)O)CC(=O)O)CC(=O)O` [EDTA], the Retained enzyme activity with D-hydantoinase [2] is given as 70%.

As to `[Cl][Fe]([Cl])[Cl]` [FeCl3], in the series on D-hydantoinase [3] (setting [9]), the Specific activity amounted to 2.52 unit/mg. Moreover, in the series with D-hydantoinase [3] (setting [10]), the Relative activity turned out to be 87.5%.

With `O=S(=O)([O-])[O-].[Fe+2]` [FeSO2], the Specific activity in the series with D-hydantoinase [3] (setting [9]) is 2.52 unit/mg. Besides, the Relative activity in the series on D-hydantoinase [3] (setting [10]) was determined as 87.5%.

In the case of `OO` [H2O2], the Retained enzyme activity with D-hydantoinase [4] (0.8 M H2O2, 25° C.) turned out to be 85%.

For `O=C1CNC(=O)N1` [Hydantoin], in the series on D-hydantoinase [1], the “Conversion” value was “capable of converting”, the Specific activity stood at 41.43 unit/mg and the Relative activity came out at 76%.

In the case of `[Cl-].[Cl-].[Mg+2]` [MgCl2], the Specific activity in the series on D-hydantoinase [3] (setting [9]) is listed as 2.62 unit/mg. Further, in the series with D-hydantoinase [3] (setting [10]), the Relative activity is listed as 91%.

The molecule `O=S(=O)([O-])[O-].[Mg+2]` [MgSO4] displayed a Specific activity with D-hydantoinase [3] (setting [9]) of 2.69 unit/mg. The Relative activity in the series with D-hydantoinase [3] (setting [10]) is 94%.

In the case of `[Cl][Mn][Cl]` [MnCl2], the “Increase of enzyme activity” value in the series with D-hydantoinase [3] (500 μM Mn2+) amounted to 7.7 times. In addition, the “Effect on enzyme activity” value with D-hydantoinase [3] (divalent metal ion added) is given as “enhance the enzyme activity”. Also, in the series with D-hydantoinase [3] (setting [9]), the Specific activity turned out to be 22.25 unit/mg. Further, the Relative activity with D-hydantoinase [3] (setting [10]) worked out at 773%.

As for `Cl.N` [NH4Cl], in the series on D-hydantoinase [4], the “Effect on enzyme activity” value is recorded as “not affected”.

In the case of `[Cl-].[Na+]` [NaCl], the “Effect on enzyme activity” value in the series with D-hydantoinase [4] is “not affected”.

Turning to `O=S(=O)([O-])[O-].[Ni+2]` [NiSO4], in the series on D-hydantoinase [3] (100 μM Ni2+), the “Increase of enzyme activity” value stood at 1.3 times. The “Effect on enzyme activity” value in the series on D-hydantoinase [3] (divalent metal ion added) is given as “enhance the enzyme activity”. In the series on D-hydantoinase [3] (setting [9]), this molecule returned a Specific activity of 4.00 unit/mg. Besides, the Relative activity in the series on D-hydantoinase [3] (setting [10]) worked out at 139%.

Turning to `O=S(=O)([O-])[O-].[Zn+2]` [ZnSO4], in the series with D-hydantoinase [3] (ion 500 μM), the “Inhibition of D-hydantoinase activity” value amounted to 50%. This molecule also had a Specific activity in the series with D-hydantoinase [3] (setting [9]) of 1.44 unit/mg. In addition, in the series on D-hydantoinase [3] (setting [10]), the Relative activity came out at 50%.

B1: D-hydantoinase: thermostable D-hydantoinase from Bacillus circulans, amino acid sequence SEQ ID NO:1, 461 amino acids, expressed in E. coli (protein)
chain: MKKWIRNGTVVTASDTYQADVLIDGEKVVAIGSDLQATDAEVIDATGYYLLPGGIDPHTHLDMPFGGTVTSDNFFTGTKAAAFGGTTSIVDFCLTSKGESLHSAIATWHEKARGKAVIDYGFHLMVSDANDHVLEELESVVNNEGITSLKVFMAYKNVLMADDETLFKTLIRAKELGALVQVHAENGDVLDYLTKQALAEGNTDPIYHAYTRPPEAEGEATGRAIALTALADAQLYVVHVSCADAVRRIAEAREKGWNVYGETCPQYLVLDITALEKPDFEGAKYVWSPPLREKWNQDVLWSALKNGILQTVGSDHCPFNFSGQKELGRRDFTKIPNGGPIIEDRMTILFSEGVRKGKISLNQFVDITSTKVAKLFGMFPQKGTIAVGSDADIVLFDPTVQRTISVETHHMNVDYNPFEGMQVHGDVISVLSRGAFVVRNKQFVGHAGAGRYVKRSTFARP
For the molecule B1, in the series with D-hydantoinase [5] (pH 4.0), the “Enzyme activity” value is recorded as “loses its entire activity”. Further, the Highest specific activity amounted to 3.36 unit/mg with D-hydantoinase [5] (pH 8.5) and 28.32 unit/mg in the series with D-hydantoinase [8] (60° C.). Further, in the series with D-hydantoinase [6], the “Activity after long incubation” value is reported as “retains activity”. Also, the “Maximum specific activity for catalysis of D,L-p-HPH” value in the series on D-hydantoinase [7] stood at 47 unit/mg. In addition, the values for the Specific activity in the series with D-hydantoinase [8] (30° C.) and with D-hydantoinase [8] (90° C.) were 9.0 unit/mg and 4.26 unit/mg, respectively.
